Data from patent US20230087560A1, “HYDROFLUORETHERS AND METHODS OF USING SAME” (3M INNOVATIVE PROPERTIES COMPANY, priority 2020, published 2023).

Assays:
[1] = Chemical stability in the presence of triethylamine (TEA); format: physicochemical; conditions: 50° C.
Experimental: (§1) Chemical Stability: Stability of compounds in the presence of the bases triethylamine (TEA), 1,4-diazabicyclo[2.2.2]octane (DABCO), and N,N,N,N-tetramethylethylene diamine (TMEDA) was tested as follows. To a 20 mL vial equipped with a magnetic stir bar were added the exemplary and comparative materials in the following starting amounts: Example 1-0.30 g (1.0 mmol), CE4-0.30 g (1.0 mmol) and CE5-0.30 g (1.0 mmol). FC-770 (0.40 g, 1.0 mmol) was added as an internal standard since it is known to be stable in the presence of the base materials tested herein. To this mixture was added one of: triethylamine (0.10 g, 1.0 mmol), DABCO (0.10 g, 0.89 mmol), or TMEDA (0.12 g, 1.0 mmol). The resultant mixture was stirred at 50° C. for 24 hours. GC-FID analysis was performed at specific time intervals to monitor the remaining hydrofluoroether and comparative materials present in the mixture.

[2] = Chemical stability in the presence of NMP, fluoride ion content; format: physicochemical; conditions: 50° C., 144 h, aqueous layer
Experimental: Stability of compounds in the presence of N-methylpyrrolidinone (NMP) was tested as follows. To a 20 mL glass vial equipped with a magnetic stir bar was added 0.66 g of NMP (6.7 mmol) and one of the following exemplary or comparative materials in the following starting amounts: Example 1-2.0 g (6.7 mmol); CE4-2.0 g (6.7 mmol); CE5-2.0 g (6.7 mmol), or CE6-2.40 g (6.7 mmol). This mixture was then stirred at 50° C. for 144 h. To the resultant mixture was added H2O (6.0 mL) and the aqueous layer was evaluated for fluoride ion content. The samples were analyzed using an Orion EA 940 meter with an Orion 9609BNWB Fluoride-ISE. Orion Ionplus Fluoride standards were used to calibrate the meter.

[3] = Chemical stability in the presence of TMEDA; format: physicochemical; conditions: 50° C.
Experimental: as §1

rats = assay: Toxicity screening study in rats, 4-hour inhalation; format: in vivo
Experimental: To a 3-neck flask equipped with a magnetic stir bar and reflux condenser were charged 1,1,1,3,3,4,4,4-octafluoro-2-(trifluoromethyl)butan-2-olate cesium salt (300 g of a 33 wt % solution in diglyme, 237 mmol). The resultant reaction mixture was heated to 70° C. followed by the dropwise addition of iodomethane (17 mL, 273 mmol). The reaction mixture was allowed to stir overnight at the same temperature. After cooling to room temperature, H2O (400 mL) was added and the mixture was transferred to a 2 L separatory funnel. The bottom, fluorochemical layer was then separated and analyzed by GC-FID indicating a 58% yield of the title compound. Distillation afforded the desired 1,1,1,2,2,4,4,4-octafluoro-3-methoxy-3-(trifluoromethyl)butane (77° C., 740 mm/Hg, 32.1 g, 45% isolated yield) as a colorless liquid. The identity of the purified composition was confirmed by GC-MS analysis.

[4] = Chemical stability in the presence of DABCO; format: physicochemical; conditions: 50° C.
Experimental: as §1

[5] = Specific heat capacity (Cp) by DSC; format: physicochemical
Experimental: Specific heat capacity (Cp): Cp was measured using a TA Instruments Model Q2000 DSC (Differential Scanning Calorimeter) instrument. A sapphire standard was run before and after the samples and the average of the measured sapphire heat capacity vs. the theoretical heat capacity was used to correct the measured heat capacity of the sample.

[6] = Pour point, determined visually; format: physicochemical
Experimental: One to two milliliters of the sample were placed in a vial and cooled in a bath until it solidified. The sample was then allowed to warm slowly in the bath and observed every 3-5° C.

[7] = Kinematic viscosity, Schott-Ubbelohde viscometers; format: physicochemical
Experimental: Kinematic viscosity: Kinematic viscosity was measured using Schott-Ubbelohde Viscometers (glass capillary viscometers). The viscometers were timed using a viscometer timer available under the trade designation AVS-350 from SI Analytics, College Station, Tex., USA. The viscometer measurement stand and glass viscometer were immersed in a temperature-controlled liquid bath filled with NOVEC 7500 fluid available from 3M Company, Maplewood, Minn., USA. The temperature-controlled liquid bath (available from Lawler Manufacturing Corporation, Edison, N.J., USA), was fitted with a copper tubing coil for liquid nitrogen cooling with fine temperature control provided by the bath's electronic temperature control heater. The fluid was mechanically stirred to provide uniform […] temperature in the bath. The bath controlled the temperature within +0.1° C., measured by a built-in RTD temperature sensor. The sample liquid was added to the viscometer between the two fill lines etched on the viscometer. The viscometer timer automatically pumped the sample fluid above the upper timing mark, then released the fluid and measured the efflux times between the upper and lower timing marks. The fluid meniscus was detected by optical sensors as it passed each timing mark. The sample was drawn up and measured repeatedly; results are provided as averages of multiple determinations. The glass viscometers were calibrated using certified kinematic viscosity standard fluids available from Cannon Instrument Company, State College, Pa., USA, to obtain a calibration constant (cSt/sec) for each viscometer. Kinematic viscosity in centiStokes (cSt) was calculated as the average efflux time (sec) times the viscometer calibration constant (cSt/sec).

| SMILES | Mole % of Starting Material ([1]; 0 hr) [Mole %] | Mole % of Starting Material ([1]; 16 hr) [Mole %] | Mole % of Starting Material ([1]; 24 hr) [Mole %] | Fluoride ion content [2] [ppm] | Mole % of Starting Material ([3]; 0 hr) [Mole %] | Mole % of Starting Material ([3]; 16 hr) [Mole %] | Mole % of Starting Material ([3]; 24 hr) [Mole %] | 4-hour inhalation LC50 (rats) | Mole % of Starting Material ([4]; 0 hr) [Mole %] | Mole % of Starting Material ([4]; 16 hr) [Mole %] | Mole % of Starting Material ([4]; 24 hr) [Mole %] | Specific Heat Capacity [5] [J/g · K] | pour point [6] [°C] | Kinematic Viscosity ([7]; 0.0 ° C.) [cSt] | Kinematic Viscosity ([7]; −10.0 ° C.) [cSt] | Kinematic Viscosity ([7]; −20.0 ° C.) [cSt] | Kinematic Viscosity ([7]; −30.0 ° C.) [cSt] | Kinematic Viscosity ([7]; −40.0 ° C.) [cSt] |
| --- | --- | --- | --- | --- | --- | --- | --- | --- | --- | --- | --- | --- | --- | --- | --- | --- | --- | --- |
| COC(C(F)(F)F)(C(F)(F)F)C(F)(F)C(F)(F)F [Example 1, 1,1,1,2,2,4,4,4-octafluoro-3-methoxy-3-(trifluoromethyl)butane] | 100 | 100 | 100 | 15.1 | 100 | 100 | 100 | > 1,840 ppm | 100 | 100 | 100 | – | – | – | – | – | – | – |
| COC(C(F)(F)C(F)(F)F)(C(F)(F)C(F)(F)F)C(F)(F)C(F)(F)F [Example 3, 1,1,1,2,2,4,4,5,5,5-decafluoro-3-methoxy-3-(1,1,2,2,2-pentafluoroethyl)pentane] | – | – | – | – | – | – | – | – | – | – | – | 1.16 | −62 | 0.97 | 1.65 | 2.15 | 2.88 | 5.19 |
| COC(F)(C(F)(F)F)C(F)(C(F)(F)F)C(F)(F)F (centres unmarked) [CE4, 1,1,1,2,3,4,4,4-octafluoro-2-methoxy-3-(trifluoromethyl)butane] | 100 | 100 | 96.7 | 388.8 | 100 | 53.3 | 53.3 | – | 100 | 66.7 | 56.7 | – | – | – | – | – | – | – |
| COC(F)(F)C(F)(C(F)(F)F)C(F)(F)C(F)(F)F (centres unmarked) [CE5, 2-(difluoro(methoxy)methyl)-1,1,1,2,3,3,4,4,4-nonafluorobutane] | 100 | 100 | 86.7 | 657.8 | 100 | 36.7 | 36.7 | – | 100 | 46.7 | 43.3 | – | – | – | – | – | – | – |
